Measured values: patent publication US7361459B2, “Antiviral inhibition of capsid proteins” (University of Maryland, Baltimore County, priority 2002, dated 2008)
Where two headings read alike, the source gives them in different places.

Legend:
Gag = Gag (Human immunodeficiency virus type 1 group M subtype B, UniProt P12493); assay: Mass action calculation of CAP-1 bound to CA/Gag in immature virions; parameters: species or system HIV-1
Procedure: This is likely due to the high local concentration of Gag molecules in assembled virions (14 mM), which favors binding by ligands with even modest affinities, e.g., N-(3-chloro-4-methylphenyl)-N′-[2-thioethyl-2′-[5-(dimethylaminomethyl)]-2-methylfuryl]urea (CAP-1). Thus conservatively assuming that cytosolic drug concentrations in the budding virus and cells are equal (100 μM), the percentage of viral CAP-1 molecules bound to CA can be estimated by standard mass action calculations which affords a value for the concentration of bound CAP-1 ([CA:CAP-1]) of 94 μM.

HIV-1 CA = HIV-1 CA (Human immunodeficiency virus type 1 group M subtype B, UniProt P12493); conditions: for initial assembly rate: 350 nm, 21° C., no compound 204±36
Procedure: Turbidity assays were performed at 21° C. using a Beckman DU650 spectrophotometer operating at 350 nm wavelength. Concentrated ligand in DMSO (0.2 μl) was added to a 250 μl aqueous solution containing the capsid protein ([CA]=60 μM; [NaH2PO4]=50 mM; pH 8.0). Particulates were removed by centrifugation, and capsid assembly was initiated by addition of a concentrated NaCl solution (5 M, 250 μl). Spectral measurements were made every 10 s, following a short initial delay to allow sample equilibration. Relative assembly rates were estimated from initial slopes of the plots of absorbance vs. time.
Tube formation leads to increases in sample turbidity that can be monitored spectrophotometrically, and this assay was used to probe for potential inhibitory effects of the CAP compounds on in vitro capsid assembly.

HIV-1RF = assay: Virus particle infectivity and RT activity from infected MAGI cell cultures; assay type: cell-based
Procedure: (§1) U1 cells (5×10^5 cells/ml) were mixed with TNF-α (10 ng/ml, Sigma) for activation of HIV virion production and treated with CAP-1 at different concentrations. Cultures were harvested 72 hours after treatment. Cell viability was measured using the MTS cell proliferation assay (CellTiter 96 Aqueous One Solution Cell Proliferation Assay, Promega, Madison, Wis.). Supernatants were collected, the cell debris removed by low speed centrifugation, and the particles in the supernatants pelleted by microcentrifugation. Infectious units associated with the particles were measured as described in Kimpton, et al., Detection of replication-competent and pseudotyped HIV with a sensitive cell line on the basis of activation of an integrated β-galactosidase gene, J. Virol. 66: 2232-39, 1992, except that β-gal activities were measured using a Tropix Gal-Screen detector system (Applied Biosystems, Foster City, Calif.). Particle-associated RT activities were determined as described in Huang, et al., p6Gag is required for particle production from full length human immunodeficiency virus type 1 molecular clones expressing protease, J. Virol., […]: 6810-18, 1995. Cell lysates and pelleted particles were subjected to SDS-PAGE analysis using AIDS patient sera (AIDS Research and Reference Regent Program, NIAID, NIH). Quantitative p24 (CA) assays were performed with the HIV-1 p24 Antigen Capture ELISA kit (AIDS vaccine program, FCRDC/SAIC/NCI, Frederick, Md.). MAGI cells were washed after viral adsorption (HIV-1RF) with PBS and were fed fresh media containing CAP-1 at various concentrations. 72 hours post-infection, the culture supernatants were harvested and pre-cleared. Virus particles present on the supernatants were collected by microcentrifugation and particle-associated RT activity and infectivity were subsequently measured.

protease = protease (Human immunodeficiency virus type 1 group M subtype B, UniProt P04585); assay: In vitro protease activity; assay type: biochemical
HIV-1 [1] = assay: Virus production: particle-associated RT activity and CA (p24) levels in U1 supernatants; assay type: cell-based; conditions: U1 cells
Procedure: as §1, with “Cell lysates and pelleted particles were subjected to SDS-PAGE analysis using AIDS patient sera (AIDS Research and Reference Regent Program, NIAID, NIH).” left out, “MAGI cells were washed after viral adsorption (HIV-1RF) with PBS and were fed fresh media containing CAP-1 at various concentrations. 72 hours post-infection, the culture supernatants were harvested and pre-cleared. Virus particles present on the supernatants were collected by microcentrifugation and particle-associated RT activity and infectivity were subsequently measured.” left out

[2] = biological target: T1, HIV-1 capsid protein N-terminal domain (Human immunodeficiency virus type 1 group M subtype B, UniProt P12493); assay: 1H-15N HSQC NMR titration, binding to the apical cleft; conditions: for binding to the capsid NTD, from chemical shift changes (in words): 1H-15N HSQC, FIGS. 13-14
T1 construct: DNA encoding the CA N-terminal domain (residues 1-151); made in house
Source text: DNA encoding the CA N-terminal domain (residues 1-151) was amplified from HIV-1 cDNA plasmid pNL-4-3 and an oligonucleotide encoding a C-terminal hexahistidine tag was appended to the gene. The DNA was inserted into a p11a expression vector (Novagen, Madison, Wis.), and the protein product was purified by cobalt affinity chromatography (Clontech, Palo Alto, Calif.); MWcalc=17523.0 daltons, MWobs=17523.10±0.44 daltons (electrospray Mass Spectrometry). The plasmid for the full length, native capsid protein was kindly provided by Dr. W. I. Sundquist (University of Utah, Salt Lake City, Utah), and the protein was purified as described. NMR spectra were assigned using conventional triple resonance methods. Binding isotherms from ^1H-^15N NMR HSQC titration experiments were calculated with ORIGIN 7.0 software (MicroCal, Northampton, Mass.).
To identify compounds that inhibit functions of the capsid protein, public domain chemical libraries were screened for compounds that might bind to clefts on the surface of the capsid protein and tested for binding using NMR titration spectroscopy. Screening efforts focused mainly on a β-hairpin cleft that is exposed on the surface of the N-terminal domain of the immature capsid protein but becomes occupied by residues of a β-hairpin that forms after proteolytic cleavage of Gag.
The mature N-terminal domain was titrated with N-(3-chloro-4-methylphenyl)-N′-[2-thioethyl-2′-[5-(dimethylaminomethyl)]-2-methylfuryl ]urea (CAP-1).

gp120 = assay: Quantitation of gp120 in supernatant with antibodies against gp120; assay type: cell-based, HIV-1
Procedure: (§2) To determine if CAP-1 affects viral gene expression and particle production, reverse transcriptase (RT) activity and CA (p24) levels were measured for the supernatants after pelleting and removal of the cells. […] Quantitation of gp120 was also obtained for the supernatant using antibodies against gp120.

U1 cells = assay: Cell viability / toxicity, MTS cell proliferation assay; conditions: for toxicity (in words): latent infected U1 cells
Procedure: as §1
The CAP compounds were tested for toxicity and antiviral activity using HIV-1 producing, latent infected U1 cells. This assay allows assessment of antiviral effects on late phase replication events.

Gag polyprotein = assay: p24 (CA) Western blot of Gag and its cleavage products, U1 cells; assay type: cell-based, HIV-1
Procedure: as §1, with “72 hours post-infection, the culture supernatants were harvested and pre-cleared.” left out
as §2

[3] = system: HIV-1 capsid core assembly; assay type: cell-based; conditions: particles from treated U1 cells
Procedure: Treated (CAP-1) and untreated virus-producing U1 cells were pelleted, washed in phosphate-buffered saline (PBS) and resuspended in at least ten cell pellet volumes of fixative (100 mM sodium cacodylate, pH 7.2, 2.5% glutaraldehyde, 1.6% paraformaldehyde, 0.5% picric acid). Cells were fixed for 24-48 hours, after which fixative was removed and cells were washed twice in PBS and pelleted in eppendorf centrifuge tubes. Washed cell pellets were post-fixed one hour in 1% osmium tetroxide plus 0.8% potassium ferricyanide in 100 mM sodium cacodylate, pH 7.2. After thorough rinsing in water, cells were pre-stained in 4% uranyl acetate one hour, thoroughly rinsed, dehydrated, infiltrated overnight in 1:1 acetone:Epon 812, infiltrated one hour with 100% Epon 812 resin, and embedded in the resin. After polymerization, 60-80 nm thin sections were cut on a Reichert untramicrotome, stained 5 minutes in lead citrate, rinsed, post-stained 30 minutes in uranyl acetate, rinsed and dried. EM was performed at 60 kV on a Philips CM120/Biotwin equipped with a 1024×1024 Gatan multiscan CCD, and images were collected at original magnifications of 25,880×-36,960×, corresponding t resolutions of 8.9 and 6.5 Å/pixel, respectively. For each sample, 4 separate EM grids were viewed, and at least 47 were collected, corresponding to a minimum total area of 35 micron^2.

HIV-1 [4] = assay: Infectious units of particles from latent infected U1 cells; assay type: cell-based
Procedure: as §1, with “Cell lysates and pelleted particles were subjected to SDS-PAGE analysis using AIDS patient sera (AIDS Research and Reference Regent Program, NIAID, NIH).” left out, “MAGI cells were washed after viral adsorption (HIV-1RF) with PBS and were fed fresh media containing CAP-1 at various concentrations. 72 hours post-infection, the culture supernatants were harvested and pre-cleared. Virus particles present on the supernatants were collected by microcentrifugation and particle-associated RT activity and infectivity were subsequently measured.” left out

[5] = as a function of increasing CAP-1

Compound: Cc1ccc(NC(=O)NCCSCc2ccc(CN(C)C)o2)cc1Cl [CAP-1, N-(3-chloro-4-methylphenyl)-N′-[2-thioethyl-2′-[5-(dimethylaminomethyl)]-2-methylfuryl]urea]
- CAP-1 molecules in immature virions bound to Gag (Gag; 100 μM dose): 94%
- concentration of bound CAP-1 ([CA:CAP-1]) (Gag; 100 μM drug, 14 mM Gag in assembled virions): 94 µM
- effect on the rate of assembly (in words) (HIV-1 CA): diminished in a dose-dependent manner
- initial assembly rate (HIV-1 CA; compound:CA ratio 1:1): 93±3 mOD/min
- initial assembly rate (HIV-1 CA; compound:CA ratio 2:1): 67±16 mOD/min
- infectious units, of the untreated levels (HIV-1RF; 100 μM, MAGI cells, 72 hours post-infection): less than 2%
- viral RT activity (in words) (HIV-1RF; MAGI cells): No reductions
- virus production after pre-incubation of MAGI cells or virus particles (in words) (HIV-1RF; pre-incubation with CAP-1): unaffected
- in vitro protease activity (in words) (protease): did not affect
- CA (p24) levels of supernatants (in words) (HIV-1 [1]): unaffected
- RT activities of supernatants (in words) (HIV-1 [1]): unaffected
- binding to the capsid NTD, from chemical shift changes (in words) [2]: bind to the apical site of the protein
- gp120 in supernatant, treated vs untreated (in words) (gp120): No differences
- cell viability (in words) (U1 cells; 100 μM, U1 cells, 72 hours): fully viable
- tolerability in cell cultures (in words) (U1 cells; cell cultures): particularly well-tolerated
- toxicity (in words) (U1 cells; 72 hours): non-toxic
- intracellular levels of Gag (p55) (in words) (Gag polyprotein; [5]): reduction
- levels of Gag cleavage products p24 and p41 (in words) (Gag polyprotein; [5]): remained relatively unaffected
- proteolytic processing of Gag (in words) (Gag polyprotein; p24 Western, treated vs untreated): does not significantly affect
- particles with a cone-shaped core (in words) [3]: none
- particles containing a dense, centrally located core ([3]; untreated 70%): 35%
- effect on supernatant infectivity (in words) (HIV-1 [4]): dose dependent reductions
- reduction of infectivity relative to untreated samples (HIV-1 [4]; 100 μM, 72 hours): ca. 95%

Compound: CC(=O)Nc1ccc(NC(=O)Nc2ccc(C)c([N+](=O)[O-])c2)cc1 [CAP-2, N-(4-N-acetamidophenyl)-N′-(3-nitro-4-methylphenyl) urea]
- effect on the rate of assembly (in words) (HIV-1 CA): diminished in a dose-dependent manner
- initial assembly rate (HIV-1 CA; compound:CA ratio 0.5:1): 81±2 mOD/min
- initial assembly rate (HIV-1 CA; compound:CA ratio 1:1): 39±11 mOD/min
- binding to the capsid NTD, from chemical shift changes (in words) [2]: bind to the apical site of the protein
- Kd ([2]; NMR titration, 1:1 binding isotherms): 52 ± 27 µM
- toxicity (in words) (U1 cells; 72 hours): too cytotoxic

Compound: Cc1ccc(NC(=O)NC(C)C)cc1[N+](=O)[O-] [CAP-3, N-(2-propyl)-N′-(3-nitro-4-methylphenyl) urea]
- binding to the capsid NTD, from chemical shift changes (in words) [2]: very weak binding

Compound: Cc1ccc(NC(=O)Nc2ccc(C#N)cc2)cc1Cl [CAP-4, N-(3-chloro-4-methylphenyl)-N′-(4-cyanophenyl) urea]
- binding to the capsid NTD, from chemical shift changes (in words) [2]: very weak binding

Compound: Cc1ccc(NC(=O)Nc2ccc(C(Cl)(Cl)Cl)cc2)cc1Cl [CAP-5, N-(3-chloro-4-methylphenyl)-N′-[4-(1,1,1-trichloromethyl)phenyl] urea]
- binding to the capsid NTD, from chemical shift changes (in words) [2]: capsid binding

Compound: O=C(Nc1cccc(C(F)(F)F)c1)Nc1ccc(F)c([N+](=O)[O-])c1 [CAP-6, N-(3-nitro-4-fluorophenyl)-N′-[3-(1,1,1-trifluoromethyl)phenyl] urea]
- binding to the capsid NTD, from chemical shift changes (in words) [2]: capsid binding

Compound: N-[(3-chloro-4-methyl phenyl)-N′,N′-propyl] urea [CAP-7]
- binding to the capsid NTD, from chemical shift changes (in words) [2]: capsid binding
